ChEMBL document CHEMBL3991601, “The target landscape of clinical kinase drugs” (Science, 2017)
Calls of active or inactive are those of the source.

Key:
[1] = target: G protein-coupled receptor kinase 6 (Homo sapiens, UniProt P43250)
[2] = target: T1, Eukaryotic translation initiation factor 5B (Homo sapiens, UniProt O60841)
T1 sequence (O60841 whole entry): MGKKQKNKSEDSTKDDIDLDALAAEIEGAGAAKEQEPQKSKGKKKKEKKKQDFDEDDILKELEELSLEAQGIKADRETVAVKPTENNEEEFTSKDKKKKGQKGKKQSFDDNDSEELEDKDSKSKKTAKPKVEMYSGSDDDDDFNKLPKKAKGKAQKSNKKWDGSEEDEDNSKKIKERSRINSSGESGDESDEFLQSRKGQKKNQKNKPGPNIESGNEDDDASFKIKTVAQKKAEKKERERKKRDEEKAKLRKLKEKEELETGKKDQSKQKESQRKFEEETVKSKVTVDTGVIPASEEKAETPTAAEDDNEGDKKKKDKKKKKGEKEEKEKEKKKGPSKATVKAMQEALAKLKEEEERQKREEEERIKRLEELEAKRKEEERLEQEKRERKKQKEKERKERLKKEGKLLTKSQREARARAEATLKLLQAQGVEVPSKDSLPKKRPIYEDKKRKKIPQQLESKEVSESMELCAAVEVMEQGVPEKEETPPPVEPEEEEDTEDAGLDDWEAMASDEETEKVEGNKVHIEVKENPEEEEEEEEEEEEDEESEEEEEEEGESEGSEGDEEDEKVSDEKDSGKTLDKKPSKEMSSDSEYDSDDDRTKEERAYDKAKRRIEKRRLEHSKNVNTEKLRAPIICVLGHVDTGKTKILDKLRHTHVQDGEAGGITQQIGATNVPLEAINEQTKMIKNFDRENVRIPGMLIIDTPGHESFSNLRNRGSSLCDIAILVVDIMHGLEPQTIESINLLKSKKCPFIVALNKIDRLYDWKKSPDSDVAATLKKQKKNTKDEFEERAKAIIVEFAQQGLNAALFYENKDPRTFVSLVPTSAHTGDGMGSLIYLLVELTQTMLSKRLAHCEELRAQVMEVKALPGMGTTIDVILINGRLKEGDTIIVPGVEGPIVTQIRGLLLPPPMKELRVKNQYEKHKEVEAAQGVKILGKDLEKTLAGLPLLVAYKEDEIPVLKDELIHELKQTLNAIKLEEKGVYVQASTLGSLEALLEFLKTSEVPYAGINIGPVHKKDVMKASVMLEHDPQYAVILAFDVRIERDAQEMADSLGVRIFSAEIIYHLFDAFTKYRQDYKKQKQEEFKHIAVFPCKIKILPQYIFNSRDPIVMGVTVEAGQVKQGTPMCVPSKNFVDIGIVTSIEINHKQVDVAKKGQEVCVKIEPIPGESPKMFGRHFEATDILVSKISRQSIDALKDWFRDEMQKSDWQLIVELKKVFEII

[3] = target: T2, ATP-dependent RNA helicase DHX30 (Homo sapiens, UniProt Q7L2E3)
T2 sequence (Q7L2E3 whole entry): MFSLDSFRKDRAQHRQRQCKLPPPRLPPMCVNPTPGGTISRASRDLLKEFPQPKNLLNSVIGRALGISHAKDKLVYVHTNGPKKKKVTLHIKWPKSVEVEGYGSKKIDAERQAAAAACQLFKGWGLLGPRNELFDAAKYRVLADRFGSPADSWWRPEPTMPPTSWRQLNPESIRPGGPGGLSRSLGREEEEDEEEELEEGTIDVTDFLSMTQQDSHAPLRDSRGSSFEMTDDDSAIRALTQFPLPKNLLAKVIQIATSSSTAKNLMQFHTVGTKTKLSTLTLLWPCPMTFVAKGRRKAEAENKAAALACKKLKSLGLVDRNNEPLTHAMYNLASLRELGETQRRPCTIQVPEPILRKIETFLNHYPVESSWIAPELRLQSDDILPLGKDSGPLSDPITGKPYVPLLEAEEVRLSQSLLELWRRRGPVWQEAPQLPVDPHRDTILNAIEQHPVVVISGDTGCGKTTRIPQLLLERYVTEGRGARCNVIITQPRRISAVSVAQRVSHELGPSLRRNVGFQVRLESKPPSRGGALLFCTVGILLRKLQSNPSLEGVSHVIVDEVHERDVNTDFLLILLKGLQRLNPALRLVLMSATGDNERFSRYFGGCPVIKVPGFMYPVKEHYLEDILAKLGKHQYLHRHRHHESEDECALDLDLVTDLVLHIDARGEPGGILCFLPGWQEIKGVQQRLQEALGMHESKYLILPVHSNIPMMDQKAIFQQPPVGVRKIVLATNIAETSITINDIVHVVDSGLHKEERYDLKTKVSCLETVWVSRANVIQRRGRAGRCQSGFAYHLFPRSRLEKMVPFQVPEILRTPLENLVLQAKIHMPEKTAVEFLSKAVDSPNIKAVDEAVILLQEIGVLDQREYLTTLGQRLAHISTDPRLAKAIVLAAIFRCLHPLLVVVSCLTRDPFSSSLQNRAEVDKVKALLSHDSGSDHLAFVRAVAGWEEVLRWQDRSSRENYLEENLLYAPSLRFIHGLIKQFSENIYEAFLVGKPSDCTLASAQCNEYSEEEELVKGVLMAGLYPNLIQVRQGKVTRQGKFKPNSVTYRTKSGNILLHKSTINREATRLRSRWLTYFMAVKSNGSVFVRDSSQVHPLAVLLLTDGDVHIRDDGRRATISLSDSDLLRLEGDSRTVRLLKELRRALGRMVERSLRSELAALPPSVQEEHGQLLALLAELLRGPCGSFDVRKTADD

Focal adhesion kinase 1 = Focal adhesion kinase 1 (Homo sapiens, UniProt Q05397)
Chain of Focal adhesion kinase 1 (Q05397 whole entry): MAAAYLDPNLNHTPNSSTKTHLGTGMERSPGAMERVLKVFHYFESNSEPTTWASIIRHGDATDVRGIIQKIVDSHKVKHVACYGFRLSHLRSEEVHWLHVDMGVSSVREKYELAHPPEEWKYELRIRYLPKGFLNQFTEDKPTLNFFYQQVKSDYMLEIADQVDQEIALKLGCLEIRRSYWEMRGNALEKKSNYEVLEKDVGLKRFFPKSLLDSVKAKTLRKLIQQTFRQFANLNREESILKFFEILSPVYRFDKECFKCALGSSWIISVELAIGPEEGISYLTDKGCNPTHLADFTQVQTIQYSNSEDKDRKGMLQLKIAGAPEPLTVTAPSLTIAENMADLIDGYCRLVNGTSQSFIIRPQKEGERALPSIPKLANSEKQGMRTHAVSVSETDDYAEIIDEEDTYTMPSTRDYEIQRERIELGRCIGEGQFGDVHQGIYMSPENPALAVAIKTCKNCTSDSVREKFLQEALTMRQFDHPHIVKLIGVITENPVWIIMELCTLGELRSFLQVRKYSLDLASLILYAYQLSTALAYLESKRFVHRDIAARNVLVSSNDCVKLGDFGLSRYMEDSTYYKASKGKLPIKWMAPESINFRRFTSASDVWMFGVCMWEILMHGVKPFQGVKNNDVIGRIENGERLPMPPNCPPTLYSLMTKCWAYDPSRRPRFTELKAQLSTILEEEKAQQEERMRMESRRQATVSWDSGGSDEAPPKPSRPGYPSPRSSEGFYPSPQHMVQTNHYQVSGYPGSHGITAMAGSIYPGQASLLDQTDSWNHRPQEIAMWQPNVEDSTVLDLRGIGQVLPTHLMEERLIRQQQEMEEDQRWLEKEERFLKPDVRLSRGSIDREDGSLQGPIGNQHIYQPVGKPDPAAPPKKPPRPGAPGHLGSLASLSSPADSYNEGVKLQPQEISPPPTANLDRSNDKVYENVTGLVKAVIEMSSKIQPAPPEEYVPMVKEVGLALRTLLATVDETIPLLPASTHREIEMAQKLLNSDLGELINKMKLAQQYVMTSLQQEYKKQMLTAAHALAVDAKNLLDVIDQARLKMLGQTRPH

Measured: Kd
Note: in the data inactive means no Kd found up to 30 µM.

Chain of G protein-coupled receptor kinase 6 (P43250 whole entry): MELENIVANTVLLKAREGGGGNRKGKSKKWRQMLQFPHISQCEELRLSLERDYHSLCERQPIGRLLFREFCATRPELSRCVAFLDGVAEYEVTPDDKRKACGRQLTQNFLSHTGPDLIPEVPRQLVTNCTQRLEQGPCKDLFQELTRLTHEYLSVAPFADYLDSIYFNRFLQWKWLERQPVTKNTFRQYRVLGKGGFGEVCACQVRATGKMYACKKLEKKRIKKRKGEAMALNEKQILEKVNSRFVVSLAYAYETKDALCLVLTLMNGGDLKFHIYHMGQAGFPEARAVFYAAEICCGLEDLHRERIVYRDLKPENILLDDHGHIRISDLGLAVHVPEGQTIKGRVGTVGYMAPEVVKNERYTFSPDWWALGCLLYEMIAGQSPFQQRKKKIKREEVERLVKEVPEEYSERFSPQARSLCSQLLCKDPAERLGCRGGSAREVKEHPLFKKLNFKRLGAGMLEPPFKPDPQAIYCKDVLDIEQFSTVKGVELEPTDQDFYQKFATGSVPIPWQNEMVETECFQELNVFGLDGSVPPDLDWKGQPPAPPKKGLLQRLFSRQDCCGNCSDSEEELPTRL

COc1cc2ncnc(Nc3ccc(F)c(Cl)c3)c2cc1NC(=O)/C=C/CN1CCCCC1 [DACOMITINIB ANHYDROUS]
inactive: [1] > 30 µM | [2] > 30 µM | [3] > 30 µM | Focal adhesion kinase 1 > 30 µM

O=C(NOC[C@H](O)CO)c1ccc(F)c(F)c1Nc1ccc(I)cc1F [MIRDAMETINIB]
inactive: [1] > 30 µM | [2] > 30 µM | [3] > 30 µM | Focal adhesion kinase 1 > 30 µM
